Results taken from patent US9309198B2, “N-[3-(2-carboxyethyl)phenyl]piperidin-1-ylacetamide derivatives and use thereof as activators of soluble guanylate cyclase” (Bayer Pharma Aktiengesellschaft, priority 2012, dated 2016).
Counter-ions that a name gives are not always drawn.

Key:
[1] = molecular target: T1, recombinant guanylate cyclase reporter cell line (sGC, CHO reporter cell) (Rattus norvegicus, UniProt P20595); experiment: Effect on a recombinant guanylate cyclase reporter cell line (CHO reporter cell); type: cell-based
T1 construct: expressed in transfected cells; host or cells: CHO reporter cell line
T1 sequence (P20595 1-619): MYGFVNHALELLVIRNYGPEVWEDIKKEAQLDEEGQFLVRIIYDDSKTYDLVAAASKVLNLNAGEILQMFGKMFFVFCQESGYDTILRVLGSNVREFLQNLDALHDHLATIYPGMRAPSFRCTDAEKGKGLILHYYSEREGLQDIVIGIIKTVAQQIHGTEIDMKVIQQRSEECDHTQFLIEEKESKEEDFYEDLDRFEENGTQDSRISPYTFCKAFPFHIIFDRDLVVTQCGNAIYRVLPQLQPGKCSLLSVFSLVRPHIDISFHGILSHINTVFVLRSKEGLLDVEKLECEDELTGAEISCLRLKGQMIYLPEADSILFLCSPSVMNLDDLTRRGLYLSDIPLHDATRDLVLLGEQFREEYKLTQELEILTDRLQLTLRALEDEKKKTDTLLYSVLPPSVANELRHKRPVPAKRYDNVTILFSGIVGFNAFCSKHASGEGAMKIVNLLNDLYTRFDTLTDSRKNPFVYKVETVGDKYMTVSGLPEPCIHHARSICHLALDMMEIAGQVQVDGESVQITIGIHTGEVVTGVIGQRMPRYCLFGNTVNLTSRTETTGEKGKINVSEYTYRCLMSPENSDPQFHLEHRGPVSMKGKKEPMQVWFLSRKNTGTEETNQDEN
T1 sequence (P19686 1-690 partner): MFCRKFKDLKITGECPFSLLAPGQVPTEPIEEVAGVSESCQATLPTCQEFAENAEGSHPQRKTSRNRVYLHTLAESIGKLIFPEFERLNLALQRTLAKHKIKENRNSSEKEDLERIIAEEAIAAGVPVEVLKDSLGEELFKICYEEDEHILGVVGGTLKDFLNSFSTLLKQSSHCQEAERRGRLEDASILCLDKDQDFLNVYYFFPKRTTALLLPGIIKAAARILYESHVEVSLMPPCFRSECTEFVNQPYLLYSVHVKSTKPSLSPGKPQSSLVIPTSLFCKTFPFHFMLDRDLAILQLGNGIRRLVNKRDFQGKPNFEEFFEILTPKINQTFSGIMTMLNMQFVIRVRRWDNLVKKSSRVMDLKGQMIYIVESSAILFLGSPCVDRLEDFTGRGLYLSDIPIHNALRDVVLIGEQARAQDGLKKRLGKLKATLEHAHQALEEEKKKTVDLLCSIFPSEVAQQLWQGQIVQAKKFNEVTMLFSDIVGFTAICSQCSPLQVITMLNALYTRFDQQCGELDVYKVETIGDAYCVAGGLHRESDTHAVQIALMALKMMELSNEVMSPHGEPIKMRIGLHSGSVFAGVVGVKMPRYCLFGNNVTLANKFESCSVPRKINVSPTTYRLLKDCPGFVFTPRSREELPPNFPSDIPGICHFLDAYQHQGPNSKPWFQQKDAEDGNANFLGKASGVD
Method: B-2. Effect on a Recombinant Guanylate Cyclase Reporter Cell Line The cellular activity of the compounds according to the invention is determined using a recombinant guanylate cyclase reporter cell line, as described in F. Wunder et al., Anal. Biochem. 339, 104-112 (2005).

[2] = molecular target: T2, soluble guanylate cyclase (sGC) (Rattus norvegicus, UniProt P20595); experiment: Stimulation of sGC enzyme activity (PPi detection, luciferase luminescence); type: biochemical; settings: for EC50: read-out: EC50 (half-maximal effective concentration), activating action at the sGC enzyme in vitro
T2 construct: made in house
T2 sequence (P20595 1-619): T1 sequence (P20595 1-619)
T2 sequence (P19686 1-690 partner): T1 sequence (P19686 1-690 partner)
Method: B-3. Stimulation of sGC Enzyme Activity
Soluble guanylate cyclase (sGC) converts on stimulation GTP into cGMP and pyrophosphate (PPi). PPi is detected with the aid of the assay described below. The signal produced in the assay increases as the reaction progresses and serves as a measure of the sGC enzyme activity under the given stimulation.
To carry out the assay, 29 μl of enzyme solution [0-10 nM soluble guanylate cyclase (prepared according to Hönicka et al., J. Mol. Med. 77, 14-23 (1999)) in 50 mM TEA, 2 mM MgCl2, 0.1% BSA (fraction V), 0.005% Brij®, pH 7.5] are initially introduced into a microplate, and 1 μl of the substance to be tested (as a serially diluted solution in DMSO) is added. The mixture is incubated at room temperature for 10 min. Then 20 μl of detection mix [1.2 nM Firefly Luciferase (Photinus pyralis luciferase, Promega), 29 μM dehydroluciferin (prepared according to Bitler & McElroy, Arch. Biochem. Biophys. 72, 358 (1957)), 122 μM luciferin (Promega), 153 μM ATP (Sigma) and 0.4 mM DTT (Sigma) in 50 mM TEA, 2 mM MgCl2, 0.1% BSA (fraction V), 0.005% Brij®, pH 7.5] are added. The enzyme reaction is started by adding 20 μl of substrate solution [1.25 mM guanosine 5′-triphosphate (Sigma) in 50 mM TEA, 2 mM MgCl2, 0.1% BSA (fraction V), 0.005% Brij®, pH 7.5] and measured continuously in a luminometer. The extent of the stimulation by the substance to be tested can be determined relative to the signal of the unstimulated reaction.
The activation of haem-free guanylate cyclase is examined by addition of 25 μM of 1H-1,2,4-oxadiazolo[4,3-a]quinoxalin-1-one (ODQ) to the enzyme solution and subsequent incubation for 30 minutes and compared to the stimulation of the native enzyme.

MEC (minimum effective concentration), sGC-activating activity in the CHO reporter cell in vitro [1] [nM] | MEC (minimum effective concentration), activating action at the sGC enzyme in vitro [2] [nM] | EC50 [2] [nM] | Compound
100 | 160 | 840 | O=C(Nc1cc(CC2(C(=O)O)CC2)ccc1F)C(C1CCCC1)N1CCc2ccccc2C1 (racemic) [Example 53, rac-1-(3-{[Cyclopentyl(3,4-dihydroisoquinolin-2(1H)-yl)acetyl]amino}-4-fluorobenzyl)cyclopropanecarboxylic acid trifluoroacetate]
0.3 | 1.1 | 7.9 | CCC1CCN([C@@H](C(=O)Nc2cc(CC3(C(=O)O)CC3)ccc2F)[C@@H](C)C(F)(F)F)CC1 (single isomer, unassigned) [Example 39]
3 | – | – | CC1CCN([C@@H](C(=O)Nc2cc([C@@H](C)CC(=O)O)ccc2Cl)[C@@H](C)C(F)(F)F)CC1 (single isomer, unassigned) [Example 49]
10 | – | – | C[C@H]([C@H](C(=O)Nc1cc([C@@H](C)CC(=O)O)ccc1Cl)N1CCC2(CC1)CC2)C(F)(F)F (single isomer, unassigned) [Example 50]
30 | – | – | CC(C(C(=O)Nc1cc(CC2(C(=O)O)CC2)ccc1F)N1CCCCC1)C(F)(F)F (single isomer, unassigned; (+)) [Example 35, (+)-1-(4-Fluoro-3-{[4,4,4-trifluoro-3-methyl-2-(piperidin-1-yl)butanoyl]amino}benzyl)cyclopropanecarboxylic acid]
200 | – | – | CC1CCN(C(C(=O)Nc2cc(CCC(=O)O)ccc2F)C(C)C(F)(F)F)CC1.O=C(O)C(F)(F)F (single isomer, unassigned; (+)) [Example 37, (+)-3-(4-Fluoro-3-{[4,4,4-trifluoro-3-methyl-2-(4-methylpiperidin-1-yl)butanoyl]amino}phenyl)propanoic acid trifluoroacetate]
30 | – | – | CC1CCN([C@@H](C(=O)Nc2cc(C[C@H](C)C(=O)O)ccc2F)[C@@H](C)C(F)(F)F)CC1 [Example 32]
300 | – | – | C[C@H](Cc1ccc(F)c(NC(=O)[C@@H]([C@@H](C)C(F)(F)F)N2CCC3(CC2)CC3)c1)C(=O)O [Example 33]

Second part, the compound before the results:

Compound | MEC (minimum effective concentration), sGC-activating activity in the CHO reporter cell in vitro [1] [nM] | MEC (minimum effective concentration), activating action at the sGC enzyme in vitro [2] [nM] | EC50 [2] [nM]
CCC1CCN(C(C(=O)Nc2cc(CC3(C(=O)O)CC3)ccc2F)C(C)C(F)(F)F)CC1 (single isomer, unassigned) [Example 8, 1-(3-{[2-(4-ethylpiperidin-1-yl)-4,4,4-trifluoro-3-methylbutanoyl]amino}-4-fluorobenzyl)cyclopropanecarboxylic acid] | 0.3 | 1.2 | 21
CCC1CCN(C(C(=O)Nc2cc(CCC(=O)O)ccc2Cl)C(C)C(F)(F)F)CC1 (single isomer, unassigned) [Example 11, 3-(4-chloro-3-{[2-(4-ethylpiperidin-1-yl)-4,4,4-trifluoro-3-methylbutanoyl]amino}phenyl)propanoic acid] | 10 | 17 | 390
CC(C(C(=O)Nc1cc(CC2(C(=O)O)CC2)ccc1F)N1CCCCC1)C(F)(F)F (centres unmarked) [Example 3] | 60 | – | –
CC1CCN(C(C(=O)Nc2cc(CCC(=O)O)ccc2F)C(C)C(F)(F)F)CC1 (centres unmarked) [Example 5] | 30 | – | –
CC1CCN([C@@H](C(=O)Nc2cc(CCC(=O)O)ccc2F)[C@@H](C)C(F)(F)F)CC1 [Example 7] | 60 | – | –
CCC1CCN(C(C(=O)Nc2cc(CCC(=O)O)ccc2F)C(C)C(F)(F)F)CC1 (centres unmarked) [Example 10] | 30 | – | –
CCC1CCN(C(C(=O)Nc2cc(CCC(=O)O)ccc2Cl)C(C)C(F)(F)F)CC1 (centres unmarked) [Example 12] | 30 | – | –
CC(C(C(=O)Nc1cc(CCC(=O)O)ccc1Cl)N1CCC(C(F)(F)F)CC1)C(F)(F)F (centres unmarked) [Example 14] | 30 | – | –
CC(C(C(=O)Nc1cc(CCC(=O)O)ccc1F)N1CCC2(CC1)CC2)C(F)(F)F (centres unmarked) [Example 15] | 10 | – | –
C[C@H]([C@H](C(=O)Nc1cc(CCC(=O)O)ccc1F)N1CCC2(CC1)CC2)C(F)(F)F [Example 16] | 50 | – | –
C[C@H]([C@H](C(=O)Nc1cc(CCC(=O)O)ccc1Cl)N1CCC(C(F)(F)F)CC1)C(F)(F)F [Example 17] | 3 | – | –
C[C@H]([C@H](C(=O)Nc1cc(CCC(=O)O)ccc1Cl)N1CCC2(CC1)CC2)C(F)(F)F [Example 19] | 3 | – | –
C[C@H]([C@H](C(=O)Nc1cc(CCC(=O)O)ccc1F)N1CCC(c2ccccc2)CC1)C(F)(F)F [Example 22] | 300 | – | –
C[C@H]([C@H](C(=O)Nc1cc([C@@H](C)CC(=O)O)ccc1Cl)N1CCC(C(F)(F)F)CC1)C(F)(F)F [Example 23] | 3 | – | –
C[C@H]([C@H](C(=O)Nc1cc(CCC(=O)O)ccc1F)N1CCC(C(F)(F)F)CC1)C(F)(F)F [Example 24] | 100 | – | –
C[C@H]([C@H](C(=O)Nc1cc(C[C@H](C)C(=O)O)ccc1F)N1CCC2(CC1)CC2)C(F)(F)F [Example 28] | 20 | – | –
C[C@H](Cc1ccc(Cl)c(NC(=O)[C@@H]([C@@H](C)C(F)(F)F)N2CCC3(CC2)CC3)c1)C(=O)O [Example 29] | 30 | – | –
CC1CCN([C@@H](C(=O)Nc2cc(C[C@@H](C)C(=O)O)ccc2F)[C@@H](C)C(F)(F)F)CC1 [Example 30] | 300 | – | –
CC1CCN([C@@H](C(=O)Nc2cc(C[C@@H](C)C(=O)O)ccc2Cl)[C@@H](C)C(F)(F)F)CC1 [Example 31] | 100 | – | –
